In publication PMC5748531, “Antimycobacterial Activities of N-Substituted-Glycinyl 1H-1,2,3-Triazolyl Oxazolidinones and Analytical Method Development and Validation for a Representative Compound” (Scientia Pharmaceutica, 2017):
≈ marks a conversion by molar mass, not a printed value.

Assays:
in vitro = conditions: mouse
Mtb H37Rv (SRI 1345) [1] = experiment: MIC broth microdilution, Mtb H37Rv; type: cell-based; conditions: Mycobacterium tuberculosis, 168 h, read-out: MIC H37Rv
Mtb H37Rv (SRI 1345) [2] = experiment: Low-oxygen recovery assay (LORA), non-replicating persistence; type: cell-based, Mycobacterium tuberculosis; conditions: 7 days anaerobic then 7 days ambient, 37 °C
[3] = tested on: Mtb H37Rv, INH-R, RMP-R and OFX-R Mtb; experiment: MIC screening, all Mtb strains tested; type: cell-based, Mycobacterium tuberculosis; conditions: range over H37Rv
[4] = Drug cytotoxicity control plate assay (MTT cell proliferation); conditions: mouse
[5] = type: in vitro ADME; conditions: 90 min, 50 μg/mL
Procedure: Aliquots of 0.5 mL of plasma samples (calibration standards) were mixed with 200 μL aliquots of internal standard solution using appropriate concentration (10–90 μg/mL) for PH-189 concentrations. The samples were loaded unto solid phase extraction (SPE) cartridges on a vacuum 20 position extraction manifold (Waters). The cartridges were pre-conditioned with 1 mL of acetonitrile followed by 1 mL of water. The loaded cartridges were washed with 1 mL of acetonitrile and the analytes (PH-189 and internal standard) were eluted with acetonitrile into a 1.5 mL glass vials. The collected samples were filtered using Kinesis syringe membrane filters (Kinesis Ltd, St Neots, UK) (13 mm) and were used for injection and analysis. The PH-189/internal standard ratios were used to calculate calibration curve and to determine PH-189 concentration in human plasma after 90 min at 37 °C.
Accuracy and precision of the UHPLC method for PH-189 was evaluated by preparing six sets of PH-189 in blank human plasma within the concentration ranges of the calibration curve. Accuracy and precision were performed in triplicate using four concentration levels of 1, 10, 50, and 90 μg/mL. […] Freezer-stored samples were thawed, extracted, and analyzed as previously mentioned. […]

[6] = Stock standard solution stability; type: physicochemical; conditions: 100 μg/mL in acetonitrile, refrigerator (4 °C)
Procedure: Stock standard solutions of PH-189 and indapamide as internal standard were separately prepared by dissolving 10 mg of the compounds in 100 mL of acetonitrile to give stock concentrations of 100 μg/mL. Working solutions of PH-189 and internal standard were prepared by diluting the stock solutions with acetonitrile to obtain concentrations of 10 μg/mL and 90 μg/mL. Stock solutions were stable for at least 5 weeks when stored in a refrigerator (4 °C).

S. aureus = tested on: S. aureus; parameters: method as in PMID 23811087; conditions: S. aureus in vitro; cited from earlier work
[7] = tested on: intracellular (macrophage) Mtb H37Rv (SRI 1345) in J774 cells; experiment: Intracellular (macrophage) drug screening assay; type: cell-based, Mycobacterium tuberculosis; conditions: range at the three concentrations tested
Mtb H37Rv (SRI 1345) [8] = experiment: Minimal bactericidal concentration (MBC); type: cell-based; conditions: Mycobacterium tuberculosis, read-out: MBC H37Rv
[9] = Mycobacterium tuberculosis, H37RV, 168 h, read-out: LORA, lowest concentration that visually inhibits growth
[10] = MTT % Viability (High Conc.), high conc., same as in macrophage assay
[11] = MTT % Viability (Low Conc.), low conc., same as in macrophage assay
[12] = MTT % Viability (Mid Conc.), mid conc., same as in macrophage assay

SMILES: Cc1cn(CC2CN(c3ccc(N4CCN(C(=O)CNC(=O)c5ccc([N+](=O)[O-])o5)CC4)c(F)c3)C(=O)O2)nn1 (centres unmarked) [PH-145]
- viability (in vitro; MTT % Viability (High Conc.)): 75%
- viability (in vitro; MTT % Viability (Low Conc.)): 87%
- viability (in vitro; MTT % Viability (Mid Conc.)): 93%
- MIC (Mtb H37Rv (SRI 1345) [1]): 0.5 µM (≈ 0.278 µg/mL)

SMILES: CCOC(=O)CC(=O)NCC(=O)N1CCN(c2ccc(N3CC(Cn4cc(C)nn4)OC3=O)cc2F)CC1 (centres unmarked) [PH-150]
- MIC (Mtb H37Rv (SRI 1345) [2]; [9]): > 58 µM
- viability (in vitro; MTT % Viability (High Conc.)): 62%
- viability (in vitro; MTT % Viability (Low Conc.)): 78%
- viability (in vitro; MTT % Viability (Mid Conc.)): 82%
- MIC (Mtb H37Rv (SRI 1345) [1]): 5.8 µM (≈ 3.08 µg/mL)

SMILES: Cc1cn(CC2CN(c3ccc(N4CCN(C(=O)CN)CC4)c(F)c3)C(=O)O2)nn1 (centres unmarked) [PH-151]
- MIC (Mtb H37Rv (SRI 1345) [2]; [9]): > 58 µM
- viability (in vitro; MTT % Viability (High Conc.)): 74%
- viability (in vitro; MTT % Viability (Low Conc.)): 83%
- viability (in vitro; MTT % Viability (Mid Conc.)): 87%
- MIC (Mtb H37Rv (SRI 1345) [1]): 5.8 µM (≈ 2.42 µg/mL)

SMILES: CC(=O)NCC(=O)N1CCN(c2ccc(N3CC(Cn4ccnn4)OC3=O)cc2F)CC1 (centres unmarked) [PH-165]
- MIC (Mtb H37Rv (SRI 1345) [2]; [9]): > 58 µM
- viability (in vitro; MTT % Viability (High Conc.)): 84%
- viability (in vitro; MTT % Viability (Low Conc.)): 91%
- viability (in vitro; MTT % Viability (Mid Conc.)): 87%
- MIC (Mtb H37Rv (SRI 1345) [1]): 6.7 µM (≈ 2.98 µg/mL)

SMILES: CCOC(=O)CC(=O)NCC(=O)N1CCN(c2ccc(N3CC(Cn4ccnn4)OC3=O)cc2F)CC1 (centres unmarked) [PH-169]
- viability (in vitro; MTT % Viability (High Conc.)): 73%
- viability (in vitro; MTT % Viability (Low Conc.)): 76%
- viability (in vitro; MTT % Viability (Mid Conc.)): 75%
- MIC (Mtb H37Rv (SRI 1345) [1]): 2.9 µM (≈ 1.5 µg/mL)

SMILES: NCC(=O)N1CCN(c2ccc(N3CC(Cn4ccnn4)OC3=O)cc2F)CC1 (centres unmarked) [PH-172]
- MIC (Mtb H37Rv (SRI 1345) [2]; [9]): > 58 µM
- MIC (Mtb H37Rv (SRI 1345) [2]; lowest concentration that visually inhibits growth, read-out: LORA): >58 µM
- viability (in vitro; MTT % Viability (High Conc.)): 71%
- viability (in vitro; MTT % Viability (Low Conc.)): 87%
- viability (in vitro; MTT % Viability (Mid Conc.)): 72%
- MIC (Mtb H37Rv (SRI 1345) [1]): 3.6 µM (≈ 1.45 µg/mL)

SMILES: Cc1cn(CC2CN(c3ccc(N4CCN(C(=O)CNC(=O)c5cc([N+](=O)[O-])cc([N+](=O)[O-])c5)CC4)c(F)c3)C(=O)O2)nn1 (centres unmarked) [PH-181]
- MIC value range against all Mtb strains tested [3]: 0.052 to 3.3 µM
- MIC (Mtb H37Rv (SRI 1345) [1]): 3.3 µM (≈ 2.02 µg/mL)
- viability [4, 10]: 39%
- viability [4, 11]: 91%
- viability [4, 12]: 88%

SMILES: Cc1cn(CC2CN(c3ccc(N4CCN(C(=O)CNC(=O)C(Cl)Cl)CC4)c(F)c3)C(=O)O2)nn1 (centres unmarked) [PH-182]
- MIC (Mtb H37Rv (SRI 1345) [2]; [9]): 0.015 to 5.7 µM (≈ 0.00793 to 3.01 µg/mL)
- viability (in vitro; MTT % Viability (High Conc.)): 87%
- viability (in vitro; MTT % Viability (Low Conc.)): 84%
- viability (in vitro; MTT % Viability (Mid Conc.)): 90%
- MIC (Mtb H37Rv (SRI 1345) [1]): 1.9 µM (≈ 1 µg/mL)

SMILES: Cc1cn(CC2CN(c3ccc(N4CCN(C(=O)CNC(=O)c5cccnc5)CC4)c(F)c3)C(=O)O2)nn1 (centres unmarked) [PH-185]
- viability (in vitro; MTT % Viability (High Conc.)): 39%
- viability (in vitro; MTT % Viability (Low Conc.)): 88%
- viability (in vitro; MTT % Viability (Mid Conc.)): 94%
- MIC (Mtb H37Rv (SRI 1345) [1]): 5.7 to 11.5 µM (≈ 2.98 to 6.01 µg/mL)

SMILES: O=C(NCC(=O)N1CCN(c2ccc(N3CC(Cn4ccnn4)OC3=O)cc2F)CC1)c1ccc([N+](=O)[O-])o1 (centres unmarked) [PH-189]
- viability (in vitro; MTT % Viability (High Conc.)): 86%
- viability (in vitro; MTT % Viability (Low Conc.)): 98%
- viability (in vitro; MTT % Viability (Mid Conc.)): 88%
- average amount of PH-189 found in human plasma [5]: 48.79 µg/mL
- recovered from human plasma [5]: more than 90%
- MIC (Mtb H37Rv (SRI 1345) [1]): 0.5 µM (≈ 0.271 µg/mL)
- stock solutions stable for [6]: at least 5 weeks
- MIC value in the presence of 50% human plasma (S. aureus): remained unchanged

SMILES: O=C(NCC(=O)N1CCN(c2ccc(N3CC(Cn4ccnn4)OC3=O)cc2F)CC1)c1cc([N+](=O)[O-])cc([N+](=O)[O-])c1 (centres unmarked) [PH-193]
- MIC value range against all Mtb strains tested [3]: 0.052 to 3.3 µM
- MIC (Mtb H37Rv (SRI 1345) [1]): 1.7 µM (≈ 1.02 µg/mL)
- viability [4, 10]: 74%
- viability [4, 11]: 100%
- viability [4, 12]: 100%

SMILES: O=C(NCC(=O)N1CCN(c2ccc(N3CC(Cn4ccnn4)OC3=O)cc2F)CC1)c1cccnc1 (centres unmarked) [PH-195]
- viability (in vitro; MTT % Viability (High Conc.)): 71%
- viability (in vitro; MTT % Viability (Low Conc.)): 100%
- viability (in vitro; MTT % Viability (Mid Conc.)): 100%
- MIC (Mtb H37Rv (SRI 1345) [1]): 3.9 µM (≈ 1.98 µg/mL)

SMILES: CO[C@H]1/C=C/O[C@@]2(C)Oc3c(C)c(O)c4c(O)c(c(/C=N/N5CCN(C)CC5)c(O)c4c3C2=O)NC(=O)/C(C)=C\C=C\[C@H](C)[C@H](O)[C@@H](C)[C@@H](O)[C@@H](C)[C@H](OC(C)=O)[C@@H]1C [RMP, Rifampicin, reference compound]
- MIC (Mtb H37Rv (SRI 1345) [2]; Mycobacterium tuberculosis, H37RV, 168 h, lowest concentration that visually inhibits growth, read-out: LORA): 0.95 µM (≈ 0.782 µg/mL)
- Macrophage log reduction in Mtb, range [7]: 1.62–2.43
- MIC (Mtb H37Rv (SRI 1345) [1]): 0.06 µM (≈ 0.0494 µg/mL)
- MBC (Mtb H37Rv (SRI 1345) [8]): 1.56 µM (≈ 1.28 µg/mL)
- viability ([4]; uninfected J774 macrophages, MTT % Viability (High Conc.), high conc., same as in macrophage assay): 84%
- viability ([4]; uninfected J774 macrophages, MTT % Viability (Low Conc.), low conc., same as in macrophage assay): 92%
- viability ([4]; uninfected J774 macrophages, MTT % Viability (Mid Conc.), mid conc., same as in macrophage assay): 85%
- viability ([4]; uninfected J774 macrophages, MTT percent cell viability, range, range at the three concentrations tested): 84 to 92%
